Source: US9688642B2, “Substituted pyrazines as GPR40 agonists” (Janssen Pharmaceutica NV, priority 2014, dated 2017)
Several values for one entry are separate records, joined by “and”; a condition that tells them apart may be missing. Equal entries are not always repeated.

Legend:
[1] = system: Male SD rats; experiment: Oral glucose tolerance test; type: in vivo, rat; details: dosed 30 min prior to oGTT (glucose 2 g/kg po), blood glucose AUC t=0 to t=120 minutes vs vehicle
Experimental: Male SD rats (200-250 g) were housed 2 per cage in a temperature-controlled room with a 12-hour light/dark cycle. They were allowed ad libitum access to water and fed with normal rodent chow. The night before the oral glucose tolerance test (oGTT), the rats were transferred to clean cages and fasted overnight. On the morning of the oGTT, the rats were weighed and randomized into groups based on fasted blood glucose and body weight. Rats were dosed with vehicle (0.5% methocel) or compounds thirty min prior to the oGTT (glucose, 2 g/kg, po). Blood was collected from the tail vein at 0, 10, 30, 60 and 120 minutes after glucose challenge to measure blood glucose; plasma was used to determine insulin levels.

[2] = target: human GPR40 (Homo sapiens (Human), UniProt O14842); experiment: GPR40 calcium flux assay, HEK293 cells stably expressing human GPR40; type: cell-based; details: transfected HEK293 cells stably expressing human GPR40; individual determinations listed; read-out: hGPR40 Ca2+ Assay EC50
Experimental: (§1) Compounds were tested in a calcium flux assay using transfected HEK293 cells stably expressing either human GPR40 or rat GPR40. Human GPR40 expressing cells were cultured in DMEM-High Glucose media supplemented with 10% fetal bovine serum, 1×L-Glutamine, 1× Penicillin/Streptomycin and 500 μg/mL G418. Rat GPR40 expressing cells were cultured in DMEM-High Glucose media supplemented with 10% fetal bovine serum and 1 μg/mL puromycin. Cells were plated into poly-D-lysine coated 384-well plates and cultured overnight in a 37° C. humidified tissue culture incubator under 5% CO2/90% O2 atmosphere. On the day of the experiment, the culture media was replaced with assay buffer (HBSS, 20 mM HEPES, 0.1% BSA) and the cells incubated at 37° C. for 1 h. Calcium-sensitive fluorescent dye (Fluo 8 No-Wash Calcium Dye, ABD Bioquest) was then added and the cells incubated for another 30 min at 37° C. followed by 15 min at room temperature while protected from the light. The cell plate and a plate of diluted compounds of Formula (I) were loaded into a fluorescent plate reader that added compounds onto the cells while measuring the fluorescence intensity of each well. The plate reader recorded fluorescence intensity at 1 second intervals for 8 min and provided the data for analysis in an Excel format. EC50 values were calculated using Prism (GraphPad) software.

[3] = target: rat GPR40 (Rattus norvegicus (Rat), UniProt Q8K3T4); experiment: GPR40 calcium flux assay, HEK293 cells stably expressing rat GPR40; type: cell-based; details: transfected HEK293 cells stably expressing rat GPR40; individual determinations listed; read-out: rGPR40 Ca2+ Assay EC50
Experimental: as §1

rat GPR40, sequence (Q8K3T4 whole entry): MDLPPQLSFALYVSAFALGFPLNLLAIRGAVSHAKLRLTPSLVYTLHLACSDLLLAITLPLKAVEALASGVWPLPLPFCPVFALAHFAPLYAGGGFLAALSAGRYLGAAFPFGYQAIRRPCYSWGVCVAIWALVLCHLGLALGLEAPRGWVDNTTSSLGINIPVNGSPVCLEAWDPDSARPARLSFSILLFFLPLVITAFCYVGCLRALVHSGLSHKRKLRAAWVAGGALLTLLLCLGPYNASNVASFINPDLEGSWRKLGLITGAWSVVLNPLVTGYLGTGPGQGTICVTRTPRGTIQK
human GPR40, sequence (O14842 whole entry): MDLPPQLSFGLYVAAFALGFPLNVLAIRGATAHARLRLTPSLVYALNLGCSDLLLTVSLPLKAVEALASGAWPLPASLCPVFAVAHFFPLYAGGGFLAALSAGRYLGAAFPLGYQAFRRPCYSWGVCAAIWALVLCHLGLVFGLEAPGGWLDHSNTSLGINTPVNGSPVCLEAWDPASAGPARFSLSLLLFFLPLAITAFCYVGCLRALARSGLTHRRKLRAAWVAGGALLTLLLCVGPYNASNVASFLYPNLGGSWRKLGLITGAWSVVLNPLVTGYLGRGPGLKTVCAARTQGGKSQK

SMILES	Percent Lowering of Glucose (AUC compound vs. AUC Vehicle) [1]	EC50 [2]	EC50 [3]
COc1cc(-c2ncc(COc3cccc([C@@H](CC(=O)O)C4CC4)c3)nc2CC(C)C)c(F)cn1 [Cpd 2, (3S)-3-cyclopropyl-3-[3-[[5-(5-fluoro-2-methoxy-4-pyridyl)-6-isobutyl-pyrazin-2-yl]methoxy]phenyl]propanoic acid]	87%	2 nM (2×) and 1 nM and 3 nM	7 nM (2×) and 8 nM and 12 nM
COc1ccc(F)c(-c2ncc(COc3cccc([C@@H](CC(=O)O)C4CC4)c3)nc2C=C(C)C)c1 [Cpd 8, (3S)-3-cyclopropyl-3-[3-[[5-(2-fluoro-5-methoxy-phenyl)-6-(2-methylprop-1-enyl)pyrazin-2-yl]methoxy]phenyl]propanoic acid]	91%	10 nM and 9 nM and 14 nM and 8 nM and 6 nM	39 nM and 29 nM and 76 nM and 50 nM
COc1ccc(F)c(-c2ncc(COc3cccc([C@@H](CC(=O)O)C4CC4)c3)nc2OC2CCCC2)c1 [Cpd 13, (3S)-3-[3-[[6-(cyclopentoxy)-5-(2-fluoro-5-methoxy-phenyl)pyrazin-2-yl]methoxy]phenyl]-3-cyclopropyl-propanoic acid]	84%	19 nM (2×) and 20 nM and 10 nM and 8 nM	31 nM and 30 nM (2×) and 53 nM and 33 nM
COc1ccc(F)c(-c2ncc(COc3cccc([C@@H](CC(=O)O)C4CC4)c3)nc2C2=CCCC2(C)C)c1 [Cpd 30, (3S)-3-cyclopropyl-3-[3-[[6-(5,5-dimethylcyclopenten-1-yl)-5-(2-fluoro-5-methoxy-phenyl)pyrazin-2-yl]methoxy]phenyl]propanoic acid]	87%		
COc1ccc(F)c(-c2ncc(COc3cccc([C@@H](CC(=O)O)C4CC4)c3)nc2OCCC(F)(F)F)c1 [Cpd 32, (3S)-3-cyclopropyl-3-[3-[[5-(2-fluoro-5-methoxy-phenyl)-6-(3,3,3-trifluoropropoxy)pyrazin-2-yl]methoxy]phenyl]propanoic acid]		30 nM and 28 nM	119 nM and 94 nM
COc1ccc(F)c(-c2ncc(COc3cccc([C@@H](CC(=O)O)C4CC4)c3)nc2-c2sccc2C)c1 [Cpd 33, (3S)-3-cyclopropyl-3-[3-[[5-(2-fluoro-5-methoxy-phenyl)-6-(3-methyl-2-thienyl)pyrazin-2-yl]methoxy]phenyl]propanoic acid]		34 nM and 27 nM	120 nM and 110 nM and 100 nM and 82 nM
COc1ccc(F)c(-c2ncc(COc3cccc([C@@H](CC(=O)O)C4CC4)c3)nc2N(C)C(C)C)c1 [Cpd 34, (3S)-3-cyclopropyl-3-[3-[[5-(2-fluoro-5-methoxy-phenyl)-6-[isopropyl(methyl)amino]pyrazin-2-yl]methoxy]phenyl]propanoic acid]		33 nM and 30 nM	112 nM and 104 nM and 88 nM and 86 nM
COc1cccc(-c2ncc(COc3cccc([C@@H](CC(=O)O)C4CC4)c3)nc2C2=CCCC2(C)C)c1 [Cpd 35, (3S)-3-cyclopropyl-3-[3-[[6-(5,5-dimethylcyclopenten-1-yl)-5-(3-methoxyphenyl)pyrazin-2-yl]methoxy]phenyl]propanoic acid]		50 nM and 25 nM	356 nM and 242 nM
COc1ccc(F)c(-c2ncc(COc3cccc([C@@H](CC(=O)O)C4CC4)c3)nc2-c2ccc(C)s2)c1 [Cpd 36, (3S)-3-cyclopropyl-3-[3-[[5-(2-fluoro-5-methoxy-phenyl)-6-(5-methyl-2-thienyl)pyrazin-2-yl]methoxy]phenyl]propanoic acid]		40 nM and 38 nM	118 nM and 109 nM and 105 nM and 86 nM
COc1ccc(F)c(-c2ncc(COc3cccc([C@@H](CC(=O)O)C4CC4)c3)nc2C(C)C)c1 [Cpd 37, (3S)-3-cyclopropyl-3-[3-[[5-(2-fluoro-5-methoxy-phenyl)-6-isopropyl-pyrazin-2-yl]methoxy]phenyl]propanoic acid]		45 nM and 44 nM	141 nM and 109 nM
COc1ccc(F)c(-c2ncc(COc3cccc([C@@H](CC(=O)O)C4CC4)c3)nc2N(C)C)c1 [Cpd 38, (3S)-3-cyclopropyl-3-[3-[[6-(dimethylamino)-5-(2-fluoro-5-methoxy-phenyl)pyrazin-2-yl]methoxy]phenyl]propanoic acid]		55 nM and 42 nM	399 nM and 395 nM
COc1ccc(F)c(-c2ncc(COc3cccc([C@@H](CC(=O)O)C4CC4)c3)nc2C2CC2)c1 [Cpd 39, (3S)-3-cyclopropyl-3-[3-[[6-cyclopropyl-5-(2-fluoro-5-methoxy-phenyl)pyrazin-2-yl]methoxy]phenyl]propanoic acid]		130 nM and 98 nM and 64 nM and 50 nM	395 nM and 358 nM and 247 nM and 208 nM
COc1ccc(F)c(-c2ncc(COc3cccc([C@@H](CC(=O)O)C4CC4)c3)nc2C(C)C(F)(F)F)c1 (stereo partly drawn) [Cpd 40, (3S)-3-cyclopropyl-3-[3-[[5-(2-fluoro-5-methoxy-phenyl)-6-(2,2,2-trifluoro-1-methyl-ethyl)pyrazin-2-yl]methoxy]phenyl]propanoic acid]		64 nM and 52 nM	253 nM and 249 nM and 236 nM and 227 nM
COc1ccc(F)c(-c2ncc(COc3cccc([C@@H](CC(=O)O)C4CC4)c3)nc2OC2COC2)c1 [Cpd 41, (3S)-3-cyclopropyl-3-[3-[[5-(2-fluoro-5-methoxy-phenyl)-6-(oxetan-3-yloxy)pyrazin-2-yl]methoxy]phenyl]propanoic acid]		79 nM and 69 nM	553 nM and 416 nM
COc1ccc(F)c(-c2ncc(COc3cccc([C@@H](CC(=O)O)C4CC4)c3)nc2OCC2CC(C)(C)C2)c1 [Cpd 42, (3S)-3-cyclopropyl-3-[3-[[6-[(3,3-dimethylcyclobutyl)methoxy]-5-(2-fluoro-5-methoxy-phenyl)pyrazin-2-yl]methoxy]phenyl]propanoic acid]		17 nM and 14 nM	32 nM and 29 nM
COc1ccc(F)c(-c2ncc(COc3cccc([C@@H](CC(=O)O)C4CC4)c3)nc2-c2ccc(C(C)(C)C)s2)c1 [Cpd 43, (3S)-3-[3-[[6-(5-tert-butyl-2-thienyl)-5-(2-fluoro-5-methoxy-phenyl)pyrazin-2-yl]methoxy]phenyl]-3-cyclopropyl-propanoic acid]		15 nM and 12 nM	81 nM and 55 nM
COc1ccc(F)c(-c2ncc(COc3cccc([C@@H](CC(=O)O)C4CC4)c3)nc2NCC(C)(C)C)c1 [Cpd 44, (3S)-3-cyclopropyl-3-[3-[[6-(2,2-dimethylpropylamino)-5-(2-fluoro-5-methoxy-phenyl)pyrazin-2-yl]methoxy]phenyl]propanoic acid]		17 nM and 11 nM	59 nM and 69 nM
COc1ccc(F)c(-c2ncc(COc3cccc([C@@H](CC(=O)O)C4CC4)c3)nc2N2CCOCC2)c1 [Cpd 45, (3S)-3-cyclopropyl-3-[3-[[5-(2-fluoro-5-methoxy-phenyl)-6-morpholinopyrazin-2-yl]methoxy]phenyl]propanoic acid]		34 nM	138 nM and 134 nM
COc1cccc(-c2ncc(COc3cccc([C@@H](CC(=O)O)C4CC4)c3)nc2C2=CCCC2(C)C)c1F [Cpd 46, (3S)-3-cyclopropyl-3-[3-[[6-(5,5-dimethylcyclopenten-1-yl)-5-(2-fluoro-3-methoxy-phenyl)pyrazin-2-yl]methoxy]phenyl]propanoic acid]		130 nM and 127 nM	637 nM and 788 nM
COc1cc(-c2ncc(COc3cccc([C@@H](CC(=O)O)C4CC4)c3)nc2OCC(C)(C)C)c(F)cn1 [Cpd 47, (3S)-3-cyclopropyl-3-[3-[[6-(2,2-dimethylpropoxy)-5-(5-fluoro-2-methoxy-4-pyridyl)pyrazin-2-yl]methoxy]phenyl]propanoic acid]		3 nM	13 nM and 14 nM
COc1cc(-c2ncc(COc3cccc([C@@H](CC(=O)O)C4CC4)c3)nc2OCC2CC2)c(F)cn1 [Cpd 48, (3S)-3-cyclopropyl-3-[3-[[6-(cyclopropylmethoxy)-5-(5-fluoro-2-methoxy-4-pyridyl)pyrazin-2-yl]methoxy]phenyl]propanoic acid]		35 nM and 32 nM	138 nM and 152 nM
